Data reported in PubChem BioAssay AID2060625 (Molecular Pharmacology Branch, DTP, NCI, 2025).
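Further: compound exposure lasted seven days before readout; 100% = DMSO vehicle control wells.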

What follows are compounds tested on 186277-243-T-J2-PDC spheroids with HUVEC/MSC, viability (assay: Anticancer human tumor 186277-243-T-J2-PDC patient-derived colon adenocarcinoma cell line growth inhibition [CLK]). Conditions: second compound 3.16 µM; first compound 0.1 µM; hits give low values.
Summary of the method: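 Multi-cell-type spheroids combined patient-derived tumor cells with HUVEC endothelial cells and human mesenchymal stem cells. Paired agents were dosed in half-log steps down from about clinical Cmax, or from 10 microM where Cmax was unknown.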
COc1c(OCCCN2CCOCC2)ccc2c3n(c(=NC(=O)c4cnc(N)nc4)nc12)CCN3 + CNC(=O)c1ccc(Nc2nc(OC3CCCC3)c3c(-c4ccc5nc(C)oc5c4)c[nH]c3n2)c(OC)c1 showed a viability, T/C of 4.81%.
Work on O=C(c1cc(Cc2n[nH]c(=O)c3ccccc23)ccc1F)N1CCN(C(=O)C2CC2)CC1 + CNC(=O)c1ccc(Nc2nc(OC3CCCC3)c3c(-c4ccc5nc(C)oc5c4)c[nH]c3n2)c(OC)c1 yielded a viability, T/C of 36.6%.
COC1C=CCC(C)C(C)S(=O)(=O)NC(=O)c2ccc3c(c2)N(CC2CCC21)CC1(CCCc2cc(Cl)ccc21)CO3 (stereo unspecified) + CN1CCN(c2cc(C(=O)Nc3cc4cc(-c5cnn(C)c5)ccc4cn3)ccn2)CC1 gave a viability, T/C of 0.97%.
C#Cc1c(F)ccc2cc(O)cc(-c3ncc4c(N5CC6CCC(C5)N6)nc(OCC56CCCN5CC(F)C6)nc4c3F)c12 (stereo unspecified) + CNC(=O)c1ccc(Nc2nc(OC3CCCC3)c3c(-c4ccc5nc(C)oc5c4)c[nH]c3n2)c(OC)c1 was tested, and the viability, T/C was 11.4%.
C=C(F)C(=O)N1CCN(c2nc(OCC3CCCN3C)nc3c2CCN(c2cccc4cccc(Cl)c24)C3)CC1CC#N (stereo unspecified) + CN1CCN(c2cc(C(=O)Nc3cc4cc(-c5cnn(C)c5)ccc4cn3)ccn2)CC1 was tested, and the viability, T/C was 1.53%.

Same assay, conditions: second compound 3.16 µM; first compound 0.316 µM; hits give low values
COc1c(OCCCN2CCOCC2)ccc2c3n(c(=NC(=O)c4cnc(N)nc4)nc12)CCN3 + CNC(=O)c1ccc(Nc2nc(OC3CCCC3)c3c(-c4ccc5nc(C)oc5c4)c[nH]c3n2)c(OC)c1 showed a viability, T/C of 4.85%.
O=C(c1cc(Cc2n[nH]c(=O)c3ccccc23)ccc1F)N1CCN(C(=O)C2CC2)CC1 + CNC(=O)c1ccc(Nc2nc(OC3CCCC3)c3c(-c4ccc5nc(C)oc5c4)c[nH]c3n2)c(OC)c1 showed a viability, T/C of 34.9%.
In the case of COC1C=CCC(C)C(C)S(=O)(=O)NC(=O)c2ccc3c(c2)N(CC2CCC21)CC1(CCCc2cc(Cl)ccc21)CO3 (stereo unspecified) + CN1CCN(c2cc(C(=O)Nc3cc4cc(-c5cnn(C)c5)ccc4cn3)ccn2)CC1, the viability, T/C is reported as 1.2%.
C#Cc1c(F)ccc2cc(O)cc(-c3ncc4c(N5CC6CCC(C5)N6)nc(OCC56CCCN5CC(F)C6)nc4c3F)c12 (stereo unspecified) + CNC(=O)c1ccc(Nc2nc(OC3CCCC3)c3c(-c4ccc5nc(C)oc5c4)c[nH]c3n2)c(OC)c1 gave a viability, T/C of 6.47%.
With C=C(F)C(=O)N1CCN(c2nc(OCC3CCCN3C)nc3c2CCN(c2cccc4cccc(Cl)c24)C3)CC1CC#N (stereo unspecified) + CN1CCN(c2cc(C(=O)Nc3cc4cc(-c5cnn(C)c5)ccc4cn3)ccn2)CC1 the viability, T/C was 1.42%.

Same assay, conditions: second compound 3.16 µM; first compound 1 µM; hits give low values
In the case of COc1c(OCCCN2CCOCC2)ccc2c3n(c(=NC(=O)c4cnc(N)nc4)nc12)CCN3 + CNC(=O)c1ccc(Nc2nc(OC3CCCC3)c3c(-c4ccc5nc(C)oc5c4)c[nH]c3n2)c(OC)c1, the viability, T/C is reported as 1.73%.
Work on O=C(c1cc(Cc2n[nH]c(=O)c3ccccc23)ccc1F)N1CCN(C(=O)C2CC2)CC1 + CNC(=O)c1ccc(Nc2nc(OC3CCCC3)c3c(-c4ccc5nc(C)oc5c4)c[nH]c3n2)c(OC)c1 yielded a viability, T/C of 36.7%.
COC1C=CCC(C)C(C)S(=O)(=O)NC(=O)c2ccc3c(c2)N(CC2CCC21)CC1(CCCc2cc(Cl)ccc21)CO3 (stereo unspecified) + CN1CCN(c2cc(C(=O)Nc3cc4cc(-c5cnn(C)c5)ccc4cn3)ccn2)CC1 was tested, and the viability, T/C was 0.98%.
In the case of C#Cc1c(F)ccc2cc(O)cc(-c3ncc4c(N5CC6CCC(C5)N6)nc(OCC56CCCN5CC(F)C6)nc4c3F)c12 (stereo unspecified) + CNC(=O)c1ccc(Nc2nc(OC3CCCC3)c3c(-c4ccc5nc(C)oc5c4)c[nH]c3n2)c(OC)c1, the viability, T/C is reported as 5.65%.
C=C(F)C(=O)N1CCN(c2nc(OCC3CCCN3C)nc3c2CCN(c2cccc4cccc(Cl)c24)C3)CC1CC#N (stereo unspecified) + CN1CCN(c2cc(C(=O)Nc3cc4cc(-c5cnn(C)c5)ccc4cn3)ccn2)CC1 was tested, and the viability, T/C was 1.35%.

Same assay, conditions: second compound 3.16 µM; first compound 3.16 µM; hits give low values
O=C(c1cc(Cc2n[nH]c(=O)c3ccccc23)ccc1F)N1CCN(C(=O)C2CC2)CC1 + CNC(=O)c1ccc(Nc2nc(OC3CCCC3)c3c(-c4ccc5nc(C)oc5c4)c[nH]c3n2)c(OC)c1 showed a viability, T/C of 38.1%.
COC1C=CCC(C)C(C)S(=O)(=O)NC(=O)c2ccc3c(c2)N(CC2CCC21)CC1(CCCc2cc(Cl)ccc21)CO3 (stereo unspecified) + CN1CCN(c2cc(C(=O)Nc3cc4cc(-c5cnn(C)c5)ccc4cn3)ccn2)CC1 showed a viability, T/C of 1.26%.
For C#Cc1c(F)ccc2cc(O)cc(-c3ncc4c(N5CC6CCC(C5)N6)nc(OCC56CCCN5CC(F)C6)nc4c3F)c12 (stereo unspecified) + CNC(=O)c1ccc(Nc2nc(OC3CCCC3)c3c(-c4ccc5nc(C)oc5c4)c[nH]c3n2)c(OC)c1, the viability, T/C was 6.73%.
Work on C=C(F)C(=O)N1CCN(c2nc(OCC3CCCN3C)nc3c2CCN(c2cccc4cccc(Cl)c24)C3)CC1CC#N (stereo unspecified) + CN1CCN(c2cc(C(=O)Nc3cc4cc(-c5cnn(C)c5)ccc4cn3)ccn2)CC1 yielded a viability, T/C of 1.01%.

Same assay, conditions: second compound 3.16 µM; first compound 10 µM; hits give low values
O=C(c1cc(Cc2n[nH]c(=O)c3ccccc23)ccc1F)N1CCN(C(=O)C2CC2)CC1 + CNC(=O)c1ccc(Nc2nc(OC3CCCC3)c3c(-c4ccc5nc(C)oc5c4)c[nH]c3n2)c(OC)c1 showed a viability, T/C of 39.6%.
Compound COC1C=CCC(C)C(C)S(=O)(=O)NC(=O)c2ccc3c(c2)N(CC2CCC21)CC1(CCCc2cc(Cl)ccc21)CO3 (stereo unspecified) + CN1CCN(c2cc(C(=O)Nc3cc4cc(-c5cnn(C)c5)ccc4cn3)ccn2)CC1 has a viability, T/C of 0.58%.
For C#Cc1c(F)ccc2cc(O)cc(-c3ncc4c(N5CC6CCC(C5)N6)nc(OCC56CCCN5CC(F)C6)nc4c3F)c12 (stereo unspecified) + CNC(=O)c1ccc(Nc2nc(OC3CCCC3)c3c(-c4ccc5nc(C)oc5c4)c[nH]c3n2)c(OC)c1, the viability, T/C was 4.61%.
For C=C(F)C(=O)N1CCN(c2nc(OCC3CCCN3C)nc3c2CCN(c2cccc4cccc(Cl)c24)C3)CC1CC#N (stereo unspecified) + CN1CCN(c2cc(C(=O)Nc3cc4cc(-c5cnn(C)c5)ccc4cn3)ccn2)CC1, the viability, T/C was 1.05%.

Same assay, conditions: second compound 10 µM; first compound 0.00316 µM; hits give low values
COc1c(OCCCN2CCOCC2)ccc2c3n(c(=NC(=O)c4cnc(N)nc4)nc12)CCN3 + CNC(=O)c1ccc(Nc2nc(OC3CCCC3)c3c(-c4ccc5nc(C)oc5c4)c[nH]c3n2)c(OC)c1 showed a viability, T/C of 21%.

Same assay, conditions: second compound 10 µM; first compound 0.01 µM; hits give low values
Compound COc1c(OCCCN2CCOCC2)ccc2c3n(c(=NC(=O)c4cnc(N)nc4)nc12)CCN3 + CNC(=O)c1ccc(Nc2nc(OC3CCCC3)c3c(-c4ccc5nc(C)oc5c4)c[nH]c3n2)c(OC)c1 has a viability, T/C of 14.5%.

Same assay, conditions: second compound 10 µM; first compound 0.0316 µM; hits give low values
In the case of COc1c(OCCCN2CCOCC2)ccc2c3n(c(=NC(=O)c4cnc(N)nc4)nc12)CCN3 + CNC(=O)c1ccc(Nc2nc(OC3CCCC3)c3c(-c4ccc5nc(C)oc5c4)c[nH]c3n2)c(OC)c1, the viability, T/C is reported as 6.54%.
